{"source": "paper PMC5218480", "about": "(PLoS ONE, 2017)", "system": "MV-4-11 cells", "assay": "Gene expression microarray analysis (Affymetrix PrimeView) and GSEA", "type": "cell-based, human", "design": "RFU PODN (11730768_x_at) / Fold change /veh PODN (11730768_x_at) / RFU LINC00158 (11744669_a_at) / Fold change /veh LINC00158 (11744669_a_at) / RFU DUSP10 (11751237_a_at) / Fold change /veh DUSP10 (11751237_a_at) / RFU ID3 (11757404_x_at) / Fold change /veh ID3 (11757404_x_at) / RFU PLEKHG5 (11737974_s_at) / Fold change /veh PLEKHG5 (11737974_s_at) / RFU LRRC4B (11730491_at) / Fold change /veh LRRC4B (11730491_at) / RFU GIMAP4 (11747438_a_at) / Fold change /veh GIMAP4 (11747438_a_at) / RFU KRT8 (11758183_x_at) / Fold change /veh KRT8 (11758183_x_at) / RFU CNN1 (11734310_a_at) / Fold change /veh CNN1 (11734310_a_at) / RFU VPS37D (11726825_at) / Fold change /veh VPS37D (11726825_at) / RFU C10orf10 (11716522_x_at) / Fold change /veh C10orf10 (11716522_x_at) / RFU KIR2DL2 /// KIR2DL4 /// KIR2DL5A /// KIR2DL5B /// KIR2DS1 /// KIR2DS2 /// KIR2DS3 /// KIR2DS4 /// KIR3DL3 /// KIR3DL3 /// KIR3DS1 (11738374_at) / Fold change /veh KIR2DL2 /// KIR2DL4 /// KIR2DL5A /// KIR2DL5B /// KIR2DS1 /// KIR2DS2 /// KIR2DS3 /// KIR2DS4 /// KIR3DL3 /// KIR3DL3 /// KIR3DS1 (11738374_at) / RFU C1QL1 (11718748_at) / Fold change /veh C1QL1 (11718748_at) / RFU TMPRSS4 (11747572_a_at) / Fold change /veh TMPRSS4 (11747572_a_at) / RFU HAMP (11756126_x_at) / Fold change /veh HAMP (11756126_x_at) / RFU RNFT2 (11725882_a_at) / Fold change /veh RNFT2 (11725882_a_at) / RFU NR4A2 (11747474_a_at) / Fold change /veh NR4A2 (11747474_a_at) / RFU ABCC12 (11746883_a_at) / Fold change /veh ABCC12 (11746883_a_at) / RFU TMEM136 (11760407_x_at) / Fold change /veh TMEM136 (11760407_x_at) / RFU CLDN22 /// WWC2 (11732394_at) / Fold change /veh CLDN22 /// WWC2 (11732394_at) / RFU HLA-DPB1 (11760878_x_at) / Fold change /veh HLA-DPB1 (11760878_x_at) / RFU SPINT1 (11716480_a_at) / Fold change /veh SPINT1 (11716480_a_at) / RFU GAP43 (11754022_s_at) / Fold change /veh GAP43 (11754022_s_at) / RFU A4GNT (11735810_at) / Fold change /veh A4GNT (11735810_at) / RFU PRB3 (11715151_x_at) / Fold change /veh PRB3 (11715151_x_at) / RFU TUBB4B (11761932_at) / Fold change /veh TUBB4B (11761932_at) / RFU CAPN14 (11732068_a_at) / Fold change /veh CAPN14 (11732068_a_at) / RFU TMCC2 (11721928_a_at) / Fold change /veh TMCC2 (11721928_a_at) / RFU IRGQ (11745062_a_at) / Fold change /veh IRGQ (11745062_a_at) / RFU FAM174B (11720279_a_at) / Fold change /veh FAM174B (11720279_a_at) / RFU TMPRSS4 (11748680_a_at) / Fold change /veh TMPRSS4 (11748680_a_at) / RFU FAM212B (11763350_a_at) / Fold change /veh FAM212B (11763350_a_at) / RFU PLEKHG5 (11743358_a_at) / Fold change /veh PLEKHG5 (11743358_a_at) / RFU ZSCAN30 (11745921_a_at) / Fold change /veh ZSCAN30 (11745921_a_at) / RFU CMKLR1 (11741424_a_at) / Fold change /veh CMKLR1 (11741424_a_at) / RFU LOC101060620 /// MAPK8IP1 (11723275_at) / Fold change /veh LOC101060620 /// MAPK8IP1 (11723275_at) / RFU SPTSSB (11747773_x_at) / Fold change /veh SPTSSB (11747773_x_at) / RFU PRSS12 (11739890_at) / Fold change /veh PRSS12 (11739890_at) / RFU BIN1 (11741810_x_at) / Fold change /veh BIN1 (11741810_x_at) / RFU WNT11 (11732464_a_at) / Fold change /veh WNT11 (11732464_a_at) / RFU C10orf10 (11716521_a_at) / Fold change /veh C10orf10 (11716521_a_at) / RFU C5orf56 (11738089_at) / Fold change /veh C5orf56 (11738089_at) / RFU CYB561 (11721691_x_at) / Fold change /veh CYB561 (11721691_x_at) / RFU ANKRD19P (11752326_a_at) / Fold change /veh ANKRD19P (11752326_a_at) / RFU OR2T12 /// OR2T33 /// OR2T8 (11738714_s_at) / Fold change /veh OR2T12 /// OR2T33 /// OR2T8 (11738714_s_at) / RFU VCAN (11748164_a_at) / Fold change /veh VCAN (11748164_a_at) / RFU JSRP1 (11732532_at) / Fold change /veh JSRP1 (11732532_at) / RFU KRTAP10-11 (11738290_x_at) / Fold change /veh KRTAP10-11 (11738290_x_at) / RFU MYO3A (11730013_a_at) / Fold change /veh MYO3A (11730013_a_at) / RFU EBF3 (11725865_a_at) / Fold change /veh EBF3 (11725865_a_at) / RFU CAMK2N1 (11719241_x_at) / Fold change /veh CAMK2N1 (11719241_x_at) / RFU C5orf56 (11738088_a_at) / Fold change /veh C5orf56 (11738088_a_at) / RFU OLFML3 (11715873_a_at) / Fold change /veh OLFML3 (11715873_a_at) / RFU LOC100653217 /// NTM (11731650_a_at) / Fold change /veh LOC100653217 /// NTM (11731650_a_at) / RFU MAPK11 (11762145_a_at) / Fold change /veh MAPK11 (11762145_a_at) / RFU FIZ1 (11724087_x_at) / Fold change /veh FIZ1 (11724087_x_at) / RFU OASL (11726364_x_at) / Fold change /veh OASL (11726364_x_at) / RFU SOX15 (11748057_x_at) / Fold change /veh SOX15 (11748057_x_at) / RFU CD79A (11719716_a_at) / Fold change /veh CD79A (11719716_a_at) / RFU HIST1H1D (11736915_at) / Fold change /veh HIST1H1D (11736915_at) / RFU CASKIN2 (11723855_a_at) / Fold change /veh CASKIN2 (11723855_a_at) / RFU LOC730098 (11760151_x_at) / Fold change /veh LOC730098 (11760151_x_at) / RFU OR4N2 (11742367_at) / Fold change /veh OR4N2 (11742367_at) / RFU PRRT2 (11749266_a_at) / Fold change /veh PRRT2 (11749266_a_at) / RFU SNX32 (11753110_a_at) / Fold change /veh SNX32 (11753110_a_at) / RFU CDHR5 (11726645_a_at) / Fold change /veh CDHR5 (11726645_a_at) / RFU RCAN1 (11760418_a_at) / Fold change /veh RCAN1 (11760418_a_at) / RFU FAM167A (11723789_a_at) / Fold change /veh FAM167A (11723789_a_at) / RFU FAM26E (11764081_at) / Fold change /veh FAM26E (11764081_at) / RFU ISYNA1 (11749810_s_at) / Fold change /veh ISYNA1 (11749810_s_at) / RFU ACY1 (11761880_at) / Fold change /veh ACY1 (11761880_at) / RFU 11764098_at / Fold change /veh 11764098_at / RFU SAMD14 (11745864_x_at) / Fold change /veh SAMD14 (11745864_x_at) / RFU NPB (11741838_a_at) / Fold change /veh NPB (11741838_a_at) / RFU TMPRSS6 (11731388_a_at) / Fold change /veh TMPRSS6 (11731388_a_at) / RFU KRTAP10-2 (11738614_at) / Fold change /veh KRTAP10-2 (11738614_at) / RFU ARHGAP8 /// PRR5-ARHGAP8 (11727945_x_at) / Fold change /veh ARHGAP8 /// PRR5-ARHGAP8 (11727945_x_at) / RFU KRTAP5-7 /// NADSYN1 (11734609_at) / Fold change /veh KRTAP5-7 /// NADSYN1 (11734609_at) / RFU RASL12 (11751679_a_at) / Fold change /veh RASL12 (11751679_a_at) / RFU CDKN2B (11736163_a_at) / Fold change /veh CDKN2B (11736163_a_at) / RFU PRF1 (11729649_at) / Fold change /veh PRF1 (11729649_at) / RFU, ZNF638 /// ZNF638-IT1 / Fold change vs veh, ZNF638 /// ZNF638-IT1 / RFU, PANK3 / Fold change vs veh, PANK3 / RFU, SH3YL1 / Fold change vs veh, SH3YL1 / RFU, ZEB2 / Fold change vs veh, ZEB2 / RFU, NRIP1 / Fold change vs veh, NRIP1 / RFU, PTTG1IP / Fold change vs veh, PTTG1IP / RFU, CAPN2 / Fold change vs veh, CAPN2 / RFU, MED14 / Fold change vs veh, MED14 / RFU, SNORA58 / Fold change vs veh, SNORA58 / RFU, C1orf63 / Fold change vs veh, C1orf63 / RFU, LRRFIP1 / Fold change vs veh, LRRFIP1 / RFU, NDUFAF7 / Fold change vs veh, NDUFAF7 / RFU, SLC12A2 / Fold change vs veh, SLC12A2 / RFU, IBTK / Fold change vs veh, IBTK / RFU, ESF1 / Fold change vs veh, ESF1 / Fold change vs veh, TMEM50B / RFU, TAOK1 / Fold change vs veh, TAOK1 / RFU, ACBD3 / Fold change vs veh, ACBD3 / RFU, TMA16 / Fold change vs veh, TMA16 / RFU, RWDD3 / Fold change vs veh, RWDD3 / RFU, BCAT1 / Fold change vs veh, BCAT1 / RFU, EDEM3 / Fold change vs veh, EDEM3 / RFU, TMEM33 / Fold change vs veh, TMEM33 / RFU, WDR75 / Fold change vs veh, WDR75 / RFU, AHCTF1 / Fold change vs veh, AHCTF1 / RFU, TFRC / Fold change vs veh, TFRC / RFU, ZDHHC17 / Fold change vs veh, ZDHHC17 / RFU, NOM1 / Fold change vs veh, NOM1 / RFU, ARL8B / Fold change vs veh, ARL8B / RFU, ZBTB11 / Fold change vs veh, ZBTB11 / RFU, TAMM41 / Fold change vs veh, TAMM41 / RFU, KIAA1704 /// LOC100996395 / Fold change vs veh, KIAA1704 /// LOC100996395 / RFU, ING1 / Fold change vs veh, ING1 / RFU, TRMT61B / Fold change vs veh, TRMT61B / RFU, FUBP3 / Fold change vs veh, FUBP3 / RFU, TP53 / Fold change vs veh, TP53 / RFU, TNKS2 / Fold change vs veh, TNKS2 / RFU, ZFP14 / Fold change vs veh, ZFP14 / RFU, ACTR2 / Fold change vs veh, ACTR2 / RFU, PPP3R1 / Fold change vs veh, PPP3R1 / RFU, PIK3R1 / Fold change vs veh, PIK3R1 / RFU, HNRNPA1 / Fold change vs veh, HNRNPA1 / RFU, RNF170 / Fold change vs veh, RNF170 / RFU, ZNF28 / Fold change vs veh, ZNF28 / RFU, RNGTT / Fold change vs veh, RNGTT / RFU, OGT / Fold change vs veh, OGT / RFU, BRD1 / Fold change vs veh, BRD1 / RFU, MARS / Fold change vs veh, MARS / RFU, ZNF655 / Fold change vs veh, ZNF655 / RFU, FAHD1 / Fold change vs veh, FAHD1 / RFU, BDP1 / Fold change vs veh, BDP1 / RFU, LRRCC1 / Fold change vs veh, LRRCC1 / RFU, ARID1A / Fold change vs veh, ARID1A / RFU, ZNF146 / Fold change vs veh, ZNF146 / RFU, ZNF330 / Fold change vs veh, ZNF330 / RFU, GPN3 / Fold change vs veh, GPN3 / RFU, C9orf123 / Fold change vs veh, C9orf123 / RFU, N4BP2L2 / Fold change vs veh, N4BP2L2 / RFU, ARFIP1 / Fold change vs veh, ARFIP1 / RFU, FAM179B / Fold change vs veh, FAM179B / RFU, BCL10 / Fold change vs veh, BCL10 / RFU, UHRF1BP1L / Fold change vs veh, UHRF1BP1L / RFU, BET1 / Fold change vs veh, BET1 / RFU, CNOT2 / Fold change vs veh, CNOT2 / RFU, ZNF268 / Fold change vs veh, ZNF268 / Fold change vs veh, ZNF507 / RFU, DGCR2 / Fold change vs veh, DGCR2 / RFU, WDSUB1 / Fold change vs veh, WDSUB1 / Fold change vs veh, HSP90B1 /// MIR3652 / RFU, ADSS / Fold change vs veh, ADSS / RFU, GK / Fold change vs veh, GK / RFU, ZNF148 / Fold change vs veh, ZNF148 / RFU, TAF9 / Fold change vs veh, TAF9 / RFU, SLC1A5 / Fold change vs veh, SLC1A5 / RFU, SLMO2 / Fold change vs veh, SLMO2 / RFU, ABCC4 / Fold change vs veh, ABCC4 / RFU, LOC101060439 /// RAP1B / Fold change vs veh, LOC101060439 /// RAP1B / RFU, RFX7 / Fold change vs veh, RFX7 / RFU, GTPBP10 / Fold change vs veh, GTPBP10 / RFU, CNEP1R1 / Fold change vs veh, CNEP1R1 / RFU, BIVM-ERCC5 /// ERCC5 / Fold change vs veh, BIVM-ERCC5 /// ERCC5 / RFU, ILF3 / Fold change vs veh, ILF3 / RFU 11762660_at / Fold change /veh 11762660_at / RFU VCAN (11757783_s_at) / Fold change /veh VCAN (11757783_s_at) / RFU DDX43 (11728927_at) / Fold change /veh DDX43 (11728927_at) / RFU KRT8 (11758188_x_at) / Fold change /veh KRT8 (11758188_x_at) / RFU NKD1 (11759106_at) / Fold change /veh NKD1 (11759106_at) / RFU SRD5A1 (11742802_a_at) / Fold change /veh SRD5A1 (11742802_a_at) / RFU TPSAB1 /// TPSB2 (11721975_s_at) / Fold change /veh TPSAB1 /// TPSB2 (11721975_s_at) / RFU GSTM3 (11746129_a_at) / Fold change /veh GSTM3 (11746129_a_at) / RFU IL23R (11737362_x_at) / Fold change /veh IL23R (11737362_x_at) / RFU TMEM51 (11727254_a_at) / Fold change /veh TMEM51 (11727254_a_at) / RFU PIWIL2 (11732686_x_at) / Fold change /veh PIWIL2 (11732686_x_at) / RFU ORM1 (11744905_x_at) / Fold change /veh ORM1 (11744905_x_at) / RFU CCDC152 (11743942_at) / Fold change /veh CCDC152 (11743942_at) / RFU ECM1 (11717891_a_at) / Fold change /veh ECM1 (11717891_a_at) / RFU IL23R (11748794_a_at) / Fold change /veh IL23R (11748794_a_at) / RFU TNFAIP8L3 (11732012_x_at) / Fold change /veh TNFAIP8L3 (11732012_x_at) / RFU MBOAT4 (11741988_at) / Fold change /veh MBOAT4 (11741988_at) / RFU 11764193_at / Fold change /veh 11764193_at / RFU TMEM53 (11763286_at) / Fold change /veh TMEM53 (11763286_at) / RFU MAGEB2 (11727129_at) / Fold change /veh MAGEB2 (11727129_at) / RFU TMEM200A (11744735_a_at) / Fold change /veh TMEM200A (11744735_a_at) / RFU CCDC152 (11751479_a_at) / Fold change /veh CCDC152 (11751479_a_at) / RFU FAM211A (11726209_a_at) / Fold change /veh FAM211A (11726209_a_at) / RFU RGS16 (11746705_a_at) / Fold change /veh RGS16 (11746705_a_at) / RFU VCAN (11755009_s_at) / Fold change /veh VCAN (11755009_s_at) / RFU RHOB (11743442_s_at) / Fold change /veh RHOB (11743442_s_at) / RFU RGS16 (11720943_a_at) / Fold change /veh RGS16 (11720943_a_at) / RFU RGS16 (11720944_at) / Fold change /veh RGS16 (11720944_at) / RFU, VPS4B / Fold change vs veh, VPS4B / RFU, CREB1 / Fold change vs veh, CREB1 / RFU, DNAJC13 / Fold change vs veh, DNAJC13 / RFU, GNAQ / Fold change vs veh, GNAQ / RFU, CDK5R1 / Fold change vs veh, CDK5R1 / RFU, ZRANB3 / Fold change vs veh, ZRANB3 / RFU, CUL4A / Fold change vs veh, CUL4A / RFU, CCNY / Fold change vs veh, CCNY / RFU, UFL1 / Fold change vs veh, UFL1 / RFU, COG3 / Fold change vs veh, COG3 / RFU, DIAPH2 / Fold change vs veh, DIAPH2 / RFU, SKA2 / Fold change vs veh, SKA2 / RFU, AFF3 / Fold change vs veh, AFF3 / RFU, LMF1 / Fold change vs veh, LMF1 / RFU, IPO11 / Fold change vs veh, IPO11 / RFU, DFFB / Fold change vs veh, DFFB / RFU, FOXP1 / Fold change vs veh, FOXP1 / RFU, CARD8 / Fold change vs veh, CARD8 / RFU, STRN3 / Fold change vs veh, STRN3 / RFU, ADK / Fold change vs veh, ADK / RFU, RASSF2 / Fold change vs veh, RASSF2 / RFU, WIPF1 / Fold change vs veh, WIPF1 / RFU, LARP1B / Fold change vs veh, LARP1B / RFU, RASA1 / Fold change vs veh, RASA1 / RFU, RB1 / Fold change vs veh, RB1 / RFU, PPFIA1 / Fold change vs veh, PPFIA1 / RFU, MAT2A / Fold change vs veh, MAT2A / RFU, CCT5 / Fold change vs veh, CCT5 / RFU, WDR92 / Fold change vs veh, WDR92 / RFU, CUX1 / Fold change vs veh, CUX1 / RFU, TTC7A / Fold change vs veh, TTC7A / RFU, TMEM135 / Fold change vs veh, TMEM135 / RFU, DEPTOR / Fold change vs veh, DEPTOR / RFU, CPM / Fold change vs veh, CPM / RFU, DNAJB6 / Fold change vs veh, DNAJB6 / RFU, CACNA2D3 / Fold change vs veh, CACNA2D3 / RFU, DTX4 / Fold change vs veh, DTX4 / RFU, TFCP2 / Fold change vs veh, TFCP2 / RFU, GMCL1 /// GMCL1P1 / Fold change vs veh, GMCL1 /// GMCL1P1 / RFU, AEBP2 / Fold change vs veh, AEBP2 / RFU, SNHG1 /// SNORD22 /// SNORD25 /// SNORD26 /// SNORD27 /// SNORD28 /// SNORD29 /// SNORD31 / Fold change vs veh, SNHG1 /// SNORD22 /// SNORD25 /// SNORD26 /// SNORD27 /// SNORD28 /// SNORD29 /// SNORD31 / Fold change (Aza/veh), C12orf56 (ProbeSet 11735607_a_at) / Fold change (ACY-1035/veh), C12orf56 (ProbeSet 11735607_a_at) / Fold change (Aza/veh), FGFR1OP (ProbeSet 11751329_s_at) / Fold change (ACY-1035/veh), FGFR1OP (ProbeSet 11751329_s_at) / Fold change (Aza/veh), VPS36 (ProbeSet 11739960_a_at) / Fold change (ACY-1035/veh), VPS36 (ProbeSet 11739960_a_at) / RFU SYPL1 (11715823_x_at) / Fold change /veh SYPL1 (11715823_x_at) / RFU IGFBP7 (11715501_s_at) / Fold change /veh IGFBP7 (11715501_s_at) / RFU REEP3 (11722064_at) / Fold change /veh REEP3 (11722064_at) / RFU IGLL1 (11728026_x_at) / Fold change /veh IGLL1 (11728026_x_at): dose or concentration left out as unconfirmed", "details": "ProbeSet 11725217_a_at; LIST B"}
{"smiles": "Nc1ncn([C@@H]2O[C@H](CO)[C@@H](O)[C@H]2O)c(=O)n1", "note": "[azacitidine]", "values": [{"measurement": "Fold change vs veh, WDSUB1", "result": 0.86}]}
